US20220274911A1, “ARYLPROPIONIC ACID DERIVATIVE, PHARMACEUTICAL COMPOSITION AND PREPARATION METHOD AND APPLICATION THEREOF” (NANJING HERON PHARMACEUTICAL SCIENCE AND TECHNOLOGY CO., …, priority 2020, published 2022)

Columns and labels:
[1] = Metabolism of the compound in human plasma (hydrolysis to the active metabolite); assay type: in vitro ADME; conditions: in vitro human plasma; for Remaining Amount of the Prodrug Compound (%): 37° C., 200 rpm, time point of the tabulated value not stated (samples at 0, 15, 30, 60 and 120 min)
Method: (1) 40 mM pure acetonitrile stock solutions of Compound 1, Compound 7 and Compound a were prepared;
(2) the stock solution (25 μL) of Compound a was mixed with 1 mL of human plasma and vortexed for 30 s, a sample (200 μL) was added to 800 μL of acetonitrile to precipitate proteins and vortexed for 1 min, and then the reaction was stopped as a control of an active metabolite of loxoprofen; and 40 mM stock solutions of Compound 1 and Compound 7 were diluted 200 times as prodrug controls;
(4) the pure acetonitrile stock solution (100 μL) of each of Compound 1 and Compound 7 was mixed with 4 mL of human plasma, vortexed for 30 s, and oscillated at 200 rpm in an oscillating water bath heater with a constant temperature of 37° C.;
(5) samples (200 μL) were taken at different time points (0, 15, 30, 60 and 120 min) with three samples at each time point, added with 800 μL of acetonitrile to precipitate proteins and vortexed for 1 min, and then the reaction was stopped; and a blank plasma control was obtained in the same manner;
(6) the samples were centrifuged at 12000 rpm for 10 min at 4° C., the supernatant was taken and injected at a volume of 30 μL (through a filter membrane), and changes of a peak area were recorded;
(7) hydrolysis rates of Compound 1 and Compound 7 were observed and analyzed.

[2] = Solubility of the active metabolite of loxoprofen; assay type: physicochemical
[3] = Physicochemical stability of the active metabolite of loxoprofen; conditions: high temperature, high humidity, cold white fluorescent lamp and ultraviolet lamp

Compound	transformation into the active metabolite [1]	Remaining Amount of the Prodrug Compound (%) [1]	metabolic rate ([1]; compared with Compound 1)	solubility ([2]; in a slightly alkaline aqueous solution)	solubility ([2]; in pure water)	physicochemical stability [3]
CCOC(=O)OC(C)OC(=O)[C@@H](C)c1ccc(C[C@H]2CCC[C@@H]2O)cc1 (some centres unmarked) [Compound 1]	rapidly transformed into the active metabolite	35.41% ± 1.83%	–	–	–	–
CC(=O)OC(C)OC(=O)[C@@H](C)c1ccc(C[C@H]2CCC[C@@H]2O)cc1 (some centres unmarked) [Compound 7]	rapidly transformed into the active metabolite	21.41% ± 0.49%	slightly faster than that of Compound 1 without a significant difference	–	–	–
C[C@H](C(=O)O)c1ccc(C[C@H]2CCC[C@@H]2O)cc1 [Compound a, (S)-2-(4-(((1R, 2S)-2-hydroxycyclopentyl)methyl)phenyl)propionic acid]	–	–	–	soluble	low solubility	poor physicochemical stability
